Legend:
[1] = reference: Carcinogenesis (2002), 23(5), 795-802; cited from earlier work
IL-1β = experiment: Levels of pro-inflammatory cytokine IL-1β in carrageenin-injected rat paw (Elisa); type: in vivo; settings: 50 mg/kg orally 60 minutes before carrageenin 300 μg/paw, tissue after 180 minutes
Description: The test used below is described by Campos et. al. in the publication Br. J. Pharmacol. 135: 1107-1114, 2002, with minor modifications. Male 160-180 g rats were orally given 50 mg/kg of alpha-humulene. Animals treated with 0.9% (0.1 ml/10 g) saline were used as control. Another group of animals was treated with 0.5 mg/kg dexamethasone, subcutaneously, 4 hours before the test, and used as positive control. After 60 minutes, the animals received intraplantar injections of 100 μl of carrageenin (300 μg/paw) and were sacrificed after 180 minutes. Control animals received saline. The subcutaneous tissue of the injected paws was removed and put in a phosphate buffer containing 0.5% tween 20, 0.1 mM benzametonium chloride, 10 mM EDTA, 2 μg/m aprotinin, 0.1 mM PMSF (phenyl methyl sulfonyl fluoride) and 0.5% BSA (bovine serum albumin). The tissues were homogenized and centrifuged at 3000 g, for 10 min, at −4° C. The supernatant was used in the test. The levels of IL-1β were measures with an Elisa kit, according to the manufacturer's instructions (R & D Systems®, USA). The tests were performed in duplicate, and repeated three times. The answers are expressed in pg/mg of tissue. […]

[2] = system: bradykinin-induced paw oedema; experiment: Bradykinin oedema in mouse paw; type: in vivo; settings: mice, bradykinin 3 nmol/paw intraplantar, captopril pre-treatment; 50 mg/kg orally 1 h before; 10 min to 48 h
Description: The test used below is described by Cunha et. al. in the publication Life Sci. 70:159-169, 2001. Male 25 g-35 g mice were slightly sedated with ether and were injected 50 μl saline containing bradykinin (BK, 3 nmol/paw), intraplantar, in the right paw. The left paw received the same volume of saline and was taken as negative control. The swelling was measured with a plethysmometer (manufacturer: Ugo Basile, Italy) along various time points intervals after the injection of the phlogistic agent. The difference between the volumes of the right and the left paw were quantified (in ml) and taken as an index of oedema. One hour before the test the animals were systemically treated (orally) with 50 mg/kg of alpha-humulene or with trans-caryophyllene. The animals were pre-treated with 5 mg/kg of captopril, injected subcutaneously, 1 hour before the test, in order to avoid degradation of […]. Graphs 3A and 3B below compare the inhibition of the volume of the oedema by administration of alpha-humulene (3A) or trans-caryophyllene (3B). Oedema volume measurement time intervals were 10, 20, 30, 60, and 120 min, 24 h and 48 h. Each point represents the average of 5 animals, and the vertical bars the mean standard error deviation.

histamine-induced oedema = experiment: Histamine oedema in mouse paw; type: in vivo; settings: mice, histamine 100 nmol/paw intraplantar; 50 mg/kg orally 1 h before; 10 min to 48 h
Description: The test used below is described by Cunha et. al. in the publication Life Sci. 70:159-169, 2001. Male 25 g-35 g mice were slightly sedated with ether and were injected 50 μl saline containing histamine (100 nmol/paw), intraplantar, in the right paw. The left paw received the same volume of saline and was taken as negative control. The swelling was measured with a plethysmometer (manufacturer: Ugo Basile, Italy) along various time intervals after the injection of the phlogistic agent. The difference between the volumes of the right and the left paw were quantified (in ml) and taken as an index of oedema. One hour before the test the animals were systemically treated (orally) with 50 mg/kg of alpha-humulene. Graph 4 below compares the inhibition of the volume of the oedema by administration of alpha-humulene. Oedema volume measurement time intervals were 10, 20, 30, 60, and 120 min, 24 h and 48 h. Each point represents the average of 5 animals, and the vertical bars the mean standard deviation.

iNOS = experiment: Expression of enzyme iNOS in carrageenin-injected rat paw (Western blot); type: in vivo; settings: 50 mg/kg orally 60 minutes before carrageenin 300 μg/paw, subcutaneous paw tissue
Description: Animals treated with 0.9% (0.1 ml/10 g) saline were used as control. Another group of animals was treated with 0.5 mg/kg dexamethasone, subcutaneously, 4 hours before the test, and used as positive control. After 60 minutes, the animals received intraplantar injections of 100 μl of carrageenin (300 μg/paw) and were sacrificed after 180 minutes, and subcutaneous paw tissue was removed 240 minutes after the carrageenin injection. The collected tissue was immediately frozen in liquid nitrogen and re-suspended in a buffer of hypotonic lysis (10 mM HEPES N-2-hydroxyethylpiperazine-N'-2-ethanesulfonic acid, 1.5 mM MgCl2, 10 mM KCl, 0.5 mM PMSF phenylmethylsulphonyl fluoride, 1.5 μg/ml trypsin inhibitor, 7 μg/ml pepstatin A, 5 μg/ml leupeptin, 0.1 mM benzamidine 0.1 mM and 0.5 mM dithiothreitol) and homogenized. The homogenate was divided in three 2 ml aliquots, cooled in ice for 15 minutes, vigorously agitated and once again cooled in ice, in the presence of 20 μl 10% non-ionic detergent Nonidet P-40 (Roche Diagnostics, USA). […] The protein concentration was determined by the Bradford method (BioRad Laboratories Inc. kit, Milan, Italy). […] The bands thus obtained were quantified using a chemoluminescence kit and densitometry analysis (relative units) in radiographic films.

[3] = system: carrageenin-induced inflammatory nociception in the hind paw; experiment: Inflammatory nociception induced by carrageenin (von Frey filament); type: in vivo; settings: mice, carrageenin 300 μg per paw intraplantar; alpha-humulene 50 mg/kg orally or paracetamol 600 mg/kg orally, 1 h before; evaluated after 3, 4 and 6 hours
Description: The evaluation methodology used in this test is described by Vaz et al. in J. Pharmacol. Exp. Ther. 278:304-312, 1996. Male mice (25-35 g) were systemically (orally) treated with alpha-humulene, 50 mg/kg, administered 1 hour before the experiment. Animals treated with 0.9% saline solution (0.1 ml/10 g) were used as the control. Another group of animals was treated with paracetamol (600 mg/kg, orally, administered 1 h before the treatment), that was used as positive control. For the induction of inflammatory pain, the animals received an intraplantar injection of 0.05 ml of carrageenin (300 μg per paw) at the plantar surface of the right hind paw. […] The nociception was evaluated with a Von Frey filament (0.4 g) after 3, 4 and 6 hours. […] The filament was applied to the right hind paw, complying with the criteria of (1) the application was perpendicular to the plantar surface, with enough pressure to cause the filament to bend, thus obtaining total pressure; (2) the animals were evaluated when the four paws were touching the screen; (3) the paw withdrawal response was considered when the animal removed the paw entirely from the support screen; (4) each animal was stimulated 10 consecutive times, each stimulation lasting 1 second; (5) each paw withdrawal event was considered as 10% of the response, with 10 withdrawal events corresponding to 100% response. […]

In the case of `C/C1=C\CC/C(C)=C/CC(C)(C)/C=C/C1` [alpha-humulene], the “anti-inflammatory or chemo-therapic effects” value [1] is listed as “virtually inactive”, the “production of pro-inflammatory cytokine IL-1β induced by carrageenin in the paws of rats” value (IL-1β) is listed as “markedly inhibited the production” and the bradykinin-induced paw oedema [2] is listed as “markedly reduced bradykinin-induced paw oedema”. For the same compound, the histamine-induced oedema formation (histamine-induced oedema) was “significantly reduced histamine-induced oedema formation”, the “expression of enzymes iNOS induced by carrageenin in the paws of rats” value (iNOS) was “markedly inhibited the expression” and the “inflammatory nociception (paw withdrawal response to 0.4 g von Frey filament)” value [3] was “reduced the inflammatory nociception”.
In the case of `C=C1CC/C=C(\C)CC[C@@H]2[C@@H]1CC2(C)C` [trans-caryophyllene], the bradykinin-induced paw oedema [2] was “markedly reduced bradykinin-induced paw oedema”.

From patent US20080280996A1, “Use of Carophyllenes in the Manufacture of Medicaments and Treatment of Bodily Conditions of Inflammation and Inflammatory Pain” (priority 2004, published 2008)
